Measurements from a melting point compilation (Tetko et al.; mined from patent text by program, amines drawn as free bases though some values may be those of a salt).

melting point	SMILES
157 to 158 °C	CSc1ccc(N=Cc2ccc(F)cc2)cc1
192 to 193 °C	O=C(O)[C@H](Cc1ccccc1)NS(=O)(=O)c1ccc(N2CCN(c3ccccc3)CC2)cc1
67 to 68 °C	c1ccc(COc2cccc(OCc3ccccc3)c2OCc2ccccc2)cc1
71 to 75 °C	OCCOc1ccccc1-c1ccccc1
104 to 105 °C	COc1nc(N(C)C)nc(CCCCCCCCCCO)c1O
242 °C	C=Cn1cc(C(=O)O)c(=O)c2cc(F)c(N3CCN(C)CC3)cc21
116 to 119 °C	NC1CCN(CC23CC(c4ccccc42)c2ccccc23)CC1
202 °C	CNc1ncnc2c1ncn2C1OC(CO)C(O)C1O (stereo not given)
153 to 154 °C	CC1COc2cc(Oc3ccc(NC(=O)N(C)C)cn3)ccc21 (stereo not given)
57 to 59 °C	CC(C)(C)C1OC1C(O)c1ccccc1 (stereo not given)
182 to 184 °C	CCCOc1ccccc1C1N=C2N=NC=C2C(=O)N1 (stereo not given)
205 to 207 °C	COc1cc(F)ccc1-c1ccc(O)c(C(=O)O)c1
203 to 204 °C	O=C(Nc1cccc2c(-n3c(-c4cccnc4)nc4ccccc43)ccnc12)c1c(Cl)cccc1Cl
214 to 215 °C	CCNC(=O)Cn1cccc(O)c1=O
179 to 180 °C	O=C(c1cc(C(F)(F)F)cc(C(F)(F)F)c1)N1CCOc2nccc(-c3ccccc3)c2C1
133 to 135 °C	CCCCc1nn(-c2cc(NC(=O)CC)ccc2Cl)c(=O)n1Cc1ccc(-c2ccccc2S(=O)(=O)NC(=O)OC(C)(C)C)cc1
146 to 148 °C	Cc1ccc(N[C@H](Cc2c[nH]c3ccccc23)C(=O)O)cc1
84 to 85 °C	O=[N+]([O-])c1ccc2c(c1)OC(c1ccccc1)O2 (stereo not given)
116 to 119 °C	CC(=O)Nc1sc2c(c1C(=O)c1ccccc1)CCCC2
273 to 275 °C	CN1c2cc(Cl)ccc2-c2nc3ccc(Cl)cc3c3cccc1c23
110 °C	CCCCCN1CC[C@@H](c2ccccc2C(F)(F)F)[C@H](CO)C1 (racemic)
115 to 117 °C	COc1ccc2c(c1)C(C(=O)N(Cc1ccc(N)cc1)c1ccc(C(C)C)cc1)CCC2 (stereo not given)
120 to 122 °C	COc1cc2c(cc1S(=O)(=O)c1ccc(OCc3ccc(Cl)cc3)cc1)CCN(C)CC2
178 to 180 °C	O=C(Nc1ccccn1)Nc1cccc2c1C1CC3(CCN1C2=O)OCCO3 (stereo not given)

The remaining lines, values behind:

SMILES	melting point
COc1cc(-n2c(=O)cc(C(F)(F)F)n(C)c2=O)c(F)cc1Br	154 °C
O=C(O)C1CCCCCCCSC[C@@H](C(=O)O)NC1=O (stereo not given in full)	167 to 170 °C
CC(=O)OCc1cc2ccccc2[nH]1	112 °C
CC1CN(C(=O)c2ccc(Cl)cc2Cl)c2ccc(Cl)cc2C1=O (stereo not given)	157 to 159 °C
CCOC(=O)C#CC(C)(C)OC(=O)Nc1ccc(-c2ncn(-c3ccc(OC(F)(F)F)cc3)n2)cc1	183 to 188 °C
CCc1nn(-c2ccc3cc(N=CN(C)C)c(=O)oc3c2)nc1C	158 to 159 °C
COc1cccc(-n2cccn2)c1C#N	93 to 94 °C
CC(=O)NCC1CN(c2ccc(-c3cccc(CN(CC(N)=O)CC(N)=O)c3)c(F)c2)C(=O)O1 (stereo not given)	213 °C
O=C1CC2(CCCC2)CC(=O)N1CCCCN1CCN(c2noc3cc(Cl)ccc23)CC1	128 °C
COc1ccnc(Cc2cnc(NCCSCc3nc[nH]c3C)[nH]c2=O)c1	128 to 130 °C
Nc1cccc(-c2ccc(CCN3CCN(c4nc(-c5ccccc5)cs4)CC3)cc2)n1	158 to 161 °C
CCCn1nc(-c2ccc(OC)cc2)cc(C(=O)NC)c1=O	106 to 107 °C
Cc1cc2oc(S(N)(=O)=O)cc2cn1	233 to 234 °C
CC(C)Nc1c(-c2ccc(S(C)(=O)=O)cc2)cnn(CC(F)(F)F)c1=O	173 to 174 °C
COc1ccc(C=C2SC(=O)N(CCc3ccccn3)C2=O)cc1-c1cc2c(cc1C)C(C)(C)CCC2(C)C	170 to 171 °C
CSc1cc2cnc(-c3ccccc3)n2c(SC)n1	117 to 118 °C
Cc1ccc(-n2nc(O)c3[nH]c4cc(Cl)ccc4c(=O)c3c2=O)cc1	368 to 370 °C
CCCCCCCCC1C=CC(/C=C/c2ccc(C(=O)O)o2)=C2N=C3C(=C21)CC(C)(C)CC3(C)C (stereo not given)	156 to 158 °C
COCCCn1nnnc1-c1cc(-c2cccc(C(=O)OC)c2)c(OCc2ccccc2)cc1OCc1ccccc1	105 to 108 °C
CC(Sc1nc(N)cc(Cl)n1)c1ccc2ccccc2c1 (stereo not given)	55 to 58 °C
COc1ccc2cc([C@H](C)C(=O)OCCOc3ccc(OCCO[N+](=O)[O-])cc3)ccc2c1	67 to 69 °C
COCCN1C(=O)C(C)(C)C(=O)Nc2cc(C#N)ccc21	184 to 185 °C
Cc1ccc(Cl)c(Nc2ccccc2C=C2SC(=N)NC2=O)c1Cl	235 to 238 °C

SMILES	melting point
O=C(O)CCCCCCc1nc2c(F)c(F)cc(F)c2s1	116 to 118 °C
COC(=O)c1cc(C(=O)c2c(C)c(NS(=O)(=O)c3cccc(OC)c3)c3ccccn23)ccc1NC(=O)C(F)(F)F	220 °C
C/C=C/C(=O)NC(=O)OC	149 to 150 °C
COc1ccc2[nH]cc(C3=CCN(C)CC3)c2n1	203 °C
CP1(=O)c2ccccc2CN1c1ccc(Cl)c(Cl)c1 (stereo not given)	152 to 154 °C
O=S(=O)(Cl)Oc1cccc2cnccc12	152 to 155 °C
O=[N+]([O-])C(F)(CCc1nnc(C(F)(F)C(F)(F)F)o1)[N+](=O)[O-]	3 to 5 °C
O=C(Nc1nccs1)c1c(C(F)(F)F)nc2c(C(F)(F)F)cccc2c1O	258 °C
Cc1c(-c2ccc(O)cc2)n(Cc2ccc(OCCN3CCCCCC3)cc2)c2ccc(O)cc12	168 to 171 °C
CCN(CC)c1ccc(C(c2ccc(N(C)C)cc2)c2ccc(N(C)C)cc2)c(OC(=O)Nc2ccccc2)c1	145 to 146 °C
COc1ccc2c(c1)C(=NOCCN1CCCC1)c1c-2c(N2CCNCC2)nc2ccccc12	126 to 128 °C
CS(=O)(=O)c1ccc(-c2oc(CCCC(=O)O)nc2-c2ccc(F)cc2)cc1	140 to 141 °C
NN1C=Nc2ccc(Cl)cc2C1(O)c1ccccc1Cl (stereo not given)	198 °C
CCOC(=O)C(C)(C)Oc1ccc(-c2ccc(CCNC(=O)c3ccc(OC)c(OC)c3)cc2)cc1	118 °C
c1ccc2c(c1)SCCCN2N=C1CCNCC1	113 to 115 °C
Nc1cccc(Cn2c(-c3ccc(-c4ccccc4)cc3)ccc2-c2ccccc2Cl)n1	181 to 185 °C
COC(=O)N(CC(=O)OC(C)(C)C)S(=O)(=O)c1ccc(N2CCC(NC[C@H](O)c3ccc(O)c(NS(C)(=O)=O)c3)CC2)cc1	110 to 115 °C
O=C(O)CC1C=CC=CC1=NOC(=O)C(Cl)Cl (stereo not given)	115 °C
COc1ccc2ccccc2c1C(Nc1ccccc1C)C(N)=O (stereo not given)	195 °C
O=C1c2ccccc2C(=O)N1CCCCN1CCC(c2noc3cc(F)ccc23)CC1	144 to 146 °C
CN(Cc1ccc2cc(NS(C)(=O)=O)ccc2n1)C1Cc2ccc(NS(C)(=O)=O)cc2C1 (stereo not given)	189 to 191 °C
CCOC(=O)C(=CNn1cnnc1)C(=O)c1cc(F)c(Cl)nc1Cl	89 to 95 °C
CC1COc2c(N3CCSCC3)c(F)cc3c(=O)c(C(=O)O)cn1c23 (stereo not given)	> 300 °C
